Data as given in patent US10273248B2, “Glucose uptake inhibitors” (Kadmon Corporation LLC, priority 2015, dated 2019).

System: glycolysis in HT1080 cells
Assay: Glycolysis assay: oligomycin plus compound, cellular ATP by Cell Titer Glo
Format: cell-based
Conditions: Homo sapiens, HT-1080, 1 h, 10 μM oligomycin, one hour, class symbols
In short: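 Confluent HT1080 cells treated 1 h with compound plus 10 μM oligomycin to block mitochondrial ATP, so remaining ATP reflects glycolysis. Cellular ATP read by Cell Titer-Glo luminescence; IC50 derived from dose-response curves.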

| Structure (SMILES) | IC50 [nM] |
| --- | --- |
| CCC(C)NC(=O)COc1cccc(-c2nc3c(c(Nc4ccc(-c5cn[nH]c5)cc4)n2)COC3)c1 (centres unmarked) [Example 77, 2-(3-(4-((4-(1H-pyrazol-4-yl)phenyl)amino)-5,7-dihydrofuro[3,4-d]pyrimidin-2-yl)phenoxy)-N-(sec-butyl)acetamide] | 10 to 100 |
| CC(C)NC(=O)COc1cccc(-c2nc(Nc3ccc(-c4cn[nH]c4)cc3)c3cnn(C)c3n2)c1 [Example 55, 2-(3-(4-((4-(1H-pyrazol-4-yl)phenyl)amino)-1-methyl-1H-pyrazolo[3,4-d]pyrimidin-6-yl)phenoxy)-N-isopropylacetamide] | 251 to 500 |
| CC(=O)N1CCc2nc(-c3cccc(OCC(=O)NC(C)(C)C)c3)nc(Nc3ccc(-c4cn[nH]c4)cc3)c2C1 [Example 114, 2-(3-(4-((4-(1H-pyrazol-4-yl)phenyl)amino)-6-acetyl-5,6,7,8-tetrahydropyrido[4,3-d]pyrimidin-2-yl)phenoxy)-N-(tert-butyl)acetamide] | 10 to 100 |
| CNC(=O)COc1cccc(-c2nc3c(c(Nc4ccc(-c5cn[nH]c5)cc4)n2)COC3)c1 [Example 42, 2-(3-(4-((4-(1H-pyrazol-4-yl)phenyl)amino)-5,7-dihydrofuro[3,4-d]pyrimidin-2-yl)phenoxy)-N-methylacetamide] | > 1000 |
| CC(C)CNC(=O)COc1cccc(-c2nc3c(c(Nc4ccc(-c5cn[nH]c5)cc4)n2)COCC3)c1 [Example 104, 2-(3-(4-((4-(1H-pyrazol-4-yl)phenyl)amino)-7,8-dihydro-5H-pyrano[4,3-d]pyrimidin-2-yl)phenoxy)-N-isobutylacetamide] | 10 to 100 |
| CCN1CCc2nc(-c3cccc(OCC(=O)NC4CCC4)c3)nc(Nc3ccc(-c4cn[nH]c4)cc3)c2C1 [Example 160, 2-(3-(4-((4-(1H-pyrazol-4-yl)phenyl)amino)-6-ethyl-5,6,7,8-tetrahydropyrido[4,3-d]pyrimidin-2-yl)phenoxy)-N-cyclobutylacetamide] | 251 to 500 |
| CCC(C)(C)NC(=O)COc1cccc(-c2nc3c(c(Nc4ccc(-c5cn[nH]c5)cc4)n2)CN(C(C)C)CC3)c1 [Example 131, 2-(3-(4-((4-(1H-pyrazol-4-yl)phenyl)amino)-6-isopropyl-5,6,7,8-tetrahydropyrido[4,3-d]pyrimidin-2-yl)phenoxy)-N-(tert-pentyl)acetamide] | 101 to 250 |
| O=C(COc1cccc(-c2nc(Nc3ccc(-c4cn[nH]c4)cc3)c3occc3n2)c1)NC1CCCC1 [Example 26] | 251 to 500 |
| CCC(CC)NC(=O)COc1cccc(-c2nc3c(c(Nc4ccc(-c5cn[nH]c5)cc4)n2)CN(C(C)=O)CC3)c1 [Example 113, 2-(3-(4-((4-(1H-pyrazol-4-yl)phenyl)amino)-6-acetyl-5,6,7,8-tetrahydropyrido[4,3-d]pyrimidin-2-yl)phenoxy)-N-(pentan-3-yl)acetamide] | 10 to 100 |

Continued, values first:

| IC50 [nM] | Structure (SMILES) |
| --- | --- |
| 10 to 100 | CC(C)C(=O)N1CCc2nc(-c3cccc(OCC(=O)NCC(C)(C)C)c3)nc(Nc3ccc(-c4cn[nH]c4)cc3)c2C1 [Example 155, 2-(3-(4-((4-(1H-pyrazol-4-yl)phenyl)amino)-6-isobutyryl-5,6,7,8-tetrahydropyrido[4,3-d]pyrimidin-2-yl)phenoxy)-N-neopentylacetamide] |
| > 1000 | Cn1cnc2c(Nc3ccc4[nH]ncc4c3)nc(-c3cccc(NC(=O)CN4CCOCC4)c3)nc21 [Example 14] |
| 101 to 250 | CCN1CCc2nc(-c3cccc(OCC(=O)NCC(C)(C)C)c3)nc(Nc3ccc(-c4cn[nH]c4)cc3)c2C1 [Example 170, 2-(3-(4-((4-(1H-pyrazol-4-yl)phenyl)amino)-6-ethyl-5,6,7,8-tetrahydropyrido[4,3-d]pyrimidin-2-yl)phenoxy)-N-neopentylacetamide] |
| > 1000 | CC(C)NC(=O)COc1cc(F)cc(-c2nc(Nc3ccc(-c4cn[nH]c4)cc3)c3ccsc3n2)c1 [Example 35] |
| > 1000 | CC(C)NC(=O)COc1cccc(-c2nc(Nc3ccc(-c4cn[nH]c4)cc3)c3ncccc3n2)c1 [Example 48, 2-(3-(4-((4-(1H-pyrazol-4-yl)phenyl)amino)pyrido[3,2-d]pyrimidin-2-yl)phenoxy)-N-isopropylacetamide] |
